Patent US9108983B2, “Pyrrole compounds, a process for their preparation and pharmaceutical compositions containing them” (LES LABORATOIRES SERVIER, priority 2013, dated 2015)
Structures can show the parent of a compound that is named as a salt.

Tests used:
Bcl-2 protein = Bcl-2 protein (histag-Bcl-2, UniProtKB P10415) (Homo sapiens (Human), UniProt P10415); test: Inhibition of Bcl-2 by the fluorescence polarisation technique; assay type: binding; conditions: incubation for 2 hours, read-out: IC50 (nM) Bcl-2 FP
Outline: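 In pH 7.4 buffer (Hepes 10 mM, NaCl 150 mM, Tween20 0.05%), test compounds at increasing concentrations competed with a fluorescein peptide (1.00×10^−8 M final) for histag-Bcl-2 (2.50×10^−8 M final). Readout was fluorescence polarisation after a 2 h incubation.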

[1] = test system: RS4;11 leukaemia tumour line; test: In vitro cytotoxicity (Microculture Tetrazolium Assay); assay type: cell-based; conditions: Homo sapiens, RS4-11, 48 h, RS4;11 cells, exposed for 48 hours, cell viability; read-out: IC50 (nM) MTT RS4;11
Procedure: The cytotoxicity studies were carried out on the RS4;11 leukaemia tumour line.
The cells are distributed onto microplates and exposed to the test compounds for 48 hours.
The cell viability is then quantified by a colorimetric assay, the Microculture Tetrazolium Assay (Cancer Res., 1987, 47, 939-942).

Chain of Bcl-2 protein (P10415 whole entry): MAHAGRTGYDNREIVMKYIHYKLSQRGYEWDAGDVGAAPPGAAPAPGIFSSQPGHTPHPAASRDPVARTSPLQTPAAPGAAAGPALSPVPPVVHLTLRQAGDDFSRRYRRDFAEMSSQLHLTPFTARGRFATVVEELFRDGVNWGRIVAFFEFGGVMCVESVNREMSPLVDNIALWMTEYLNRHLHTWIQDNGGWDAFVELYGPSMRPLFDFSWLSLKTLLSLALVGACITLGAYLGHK

Compound | IC50 (Bcl-2 protein) [nM] | IC50 [1] [nM]
Cc1c(C(=O)N(c2ccc(O)cc2)c2cnn(C3CCOC3)c2)cc(-c2cc(Cl)ccc2C(=O)N2Cc3ccccc3C[C@H]2CN2CCOCC2)n1C (stereo partly drawn) [Example 127, 5-(5-Chloro-2-{[(3S)-3-(morpholin-4-ylmethyl)-3,4-dihydroisoquinolin-2(1H)-yl]carbonyl}phenyl)-N-(4-hydroxyphenyl)-1,2-dimethyl-N-[1-(tetrahydrofuran-3-yl)-1H-pyrazol-4-yl]-1H-pyrrole-3-carboxamide hydrochloride] | 5.3 | 111
Cc1c(C(=O)N(C)c2ccc(O)cc2)cc(-c2cc(CCNC(=O)Nc3ccccc3)ccc2C(=O)N2Cc3ccccc3C[C@H]2C)n1C [Example 58, N-(4-Hydroxyphenyl)-N,1,2-trimethyl-5-(2-{[(3R)-3-methyl-3,4-dihydroisoquinolin-2(1H)-yl]carbonyl}-5-{2-[(phenylcarbamoyl)amino]ethyl}phenyl)-1H-pyrrole-3-carboxamide] | 133 | > 600
COCCN(C)CCn1c(-c2cc3c(cc2C(=O)N2Cc4ccccc4C[C@H]2C)OCO3)cc(C(=O)N(c2ccc(O)cc2)c2cnn(C)c2)c1C [Example 99, N-(4-Hydroxyphenyl)-1-{2-[(2-methoxyethyl)(methyl)amino]ethyl}-2-methyl-5-(6-{[(3R)-3-methyl-3,4-dihydroisoquinolin-2(1H)-yl]carbonyl}-1,3-benzodioxol-5-yl)-N-(1-methyl-1H-pyrazol-4-yl)-1H-pyrrole-3-carboxamide hydrochloride] | 6.4 | 108
Cc1c(C(=O)N(C)c2ccc(O)cc2)cc(-c2cc(CNC(=O)NCc3ccccc3)ccc2C(=O)N2Cc3ccccc3C[C@H]2C)n1C [Example 51, 5-(5-{[(Benzylcarbamoyl)amino]methyl}-2-{[(3R)-3-methyl-3,4-dihydroisoquinolin-2(1H)-yl]carbonyl}phenyl)-N-(4-hydroxyphenyl)-N,1,2-trimethyl-1H-pyrrole-3-carboxamide] | 26.7 | 354
Cc1c(C(=O)N(c2ccccc2)c2ccc(O)cc2)cc(-c2cc3c(cc2C(=O)N2Cc4ccccc4C[C@H]2CN2CCOCC2)OCCO3)n1C [Example 22, N-(4-Hydroxyphenyl)-1,2-dimethyl-5-(7-{[(3S)-3-(morpholin-4-ylmethyl)-3,4-dihydroisoquinolin-2(1H)-yl]carbonyl}-2,3-dihydro-1,4-benzodioxin-6-yl)-N-phenyl-1H-pyrrole-3-carboxamide hydrochloride] | 6.6 | 45.7
Cc1c(C(=O)N(C)c2ccc(O)cc2)cc(-c2cc(CCNC(=O)COc3ccccc3)ccc2C(=O)N2Cc3ccccc3C[C@H]2C)n1C [Example 46, N-(4-Hydroxyphenyl)-N,1,2-trimethyl-5-(2-{[(3R)-3-methyl-3,4-dihydroisoquinolin-2(1H)-yl]carbonyl}-5-{2-[(phenoxyacetyl)amino]ethyl}phenyl)-1H-pyrrole-3-carboxamide] | 76.6 | > 600
Cc1c(C(=O)N(c2ccc(O)cc2)c2cnn(C)c2)cc(-c2cc3c(cc2C(=O)N2Cc4ccccc4C[C@H]2C)OCO3)n1C [Example 39, N-(4-Hydroxyphenyl)-1,2-dimethyl-5-(6-{[(3R)-3-methyl-3,4-dihydroisoquinolin-2(1H)-yl]carbonyl}-1,3-benzodioxol-5-yl)-N-(1-methyl-1H-pyrazol-4-yl)-1H-pyrrole-3-carboxamide] | 7.2 | 19.7
Cc1c(C(=O)N(c2ccc(O)cc2)c2cnn(C)c2)cc(-c2cc3c(cc2C(=O)N2Cc4ccccc4C[C@H]2C)OCO3)n1CCN1CCOCC1 [Example 96, N-(4-Hydroxyphenyl)-2-methyl-5-(6-{[(3R)-3-methyl-3,4-dihydroisoquinolin-2(1H)-yl]carbonyl}-1,3-benzodioxol-5-yl)-N-(1-methyl-1H-pyrazol-4-yl)-1-[2-(morpholin-4-yl)ethyl]-1H-pyrrole-3-carboxamide hydrochloride] | 13.5 | 161
Cc1c(C(=O)N(c2ccccc2)c2ccc(O)cc2)cc(-c2cc(Cl)ccc2C(=O)N2Cc3ccccc3C[C@H]2CCCN2CCOCC2)n1C [Example 392, 5-(5-Chloro-2-{[(3R)-3-[3-(morpholin-4-yl)propyl]-3,4-dihydroisoquinolin-2(1H)-yl]carbonyl}phenyl)-N-(4-hydroxyphenyl)-1,2-dimethyl-N-phenyl-1H-pyrrole-3-carboxamide hydrochloride] | 3.8 | 11.4
COCCc1c(C(=O)N(c2ccc(O)cc2)c2cnc3c(c2)CCN3C)cc(-c2cc3c(cc2C(=O)N2Cc4ccccc4C[C@H]2CN2CCOCC2)OCO3)n1C [Example 358, N-(4-Hydroxyphenyl)-2-(2-methoxyethyl)-1-methyl-N-(1-methyl-2,3-dihydro-1H-pyrrolo[2,3-b]pyridin-5-yl)-5-(6-{[(3S)-3-(morpholin-4-ylmethyl)-3,4-dihydroisoquinolin-2(1H)-yl]carbonyl}-1,3-benzodioxol-5-yl)-1H-pyrrole-3-carboxamide hydrochloride] | 14.8 | 165
Cc1c(N(C(=O)c2cc(-c3ccccc3C(=O)N3Cc4ccccc4C[C@H]3CN3CCOCC3)n(C)c2C)c2ccc(O)cc2)cc(C#N)n1C [Example 406, N-(5-Cyano-1,2-dimethyl-1H-pyrrol-3-yl)-N-(4-hydroxyphenyl)-1,2-dimethyl-5-(2-{[(3S)-3-(morpholin-4-ylmethyl)-3,4-dihydroisoquinolin-2(1H)-yl]carbonyl}phenyl)-1H-pyrrole-3-carboxamide hydrochloride] | 4.2 | 10.6
Cc1c(C(=O)N(c2ccc(O)cc2)c2cnc3c(c2)CCN3C)cc(-c2cc(Cl)ccc2C(=O)N2Cc3ccccc3C[C@H]2CCCN2CCOCC2)n1C [Example 394, 5-(5-Chloro-2-{[(3R)-3-[3-(morpholin-4-yl)propyl]-3,4-dihydroisoquinolin-2(1H)-yl]carbonyl}phenyl)-N-(4-hydroxyphenyl)-1,2-dimethyl-N-(1-methyl-2,3-dihydro-1H-pyrrolo[2,3-b]pyridin-5-yl)-1H-pyrrole-3-carboxamide] | 2.5 | 2.76
Cl.[2H]C([2H])([2H])n1cc(N(C(=O)c2cc(-c3cc(Cl)ccc3C(=O)N3Cc4ccccc4C[C@H]3CN3CCOCC3)n(C)c2C)c2ccc(O)cc2)cn1 [Example 416, 5-(5-Chloro-2-{[(3S)-3-(morpholin-4-ylmethyl)-3,4-dihydroisoquinolin-2(1H)-yl]carbonyl}phenyl)-N-(4-hydroxyphenyl)-1,2-dimethyl-N-[1-(trideuteriomethyl)-1H-pyrazol-4-yl]-1H-pyrrole-3-carboxamide hydrochloride] | 2.9 | 42.5

Now from value to compound, other results behind:

IC50 (Bcl-2 protein) [nM] | Compound | IC50 [1] [nM]
5.5 | COc1cnc(N(C(=O)c2cc(-c3cc(Cl)ccc3C(=O)N3Cc4ccccc4C[C@H]3CN3CCOCC3)n(C)c2C)c2ccc(O)cc2)cn1 [Example 444, 5-(5-Chloro-2-{[(3S)-3-(morpholin-4-ylmethyl)-3,4-dihydroisoquinolin-2(1H)-yl]carbonyl}phenyl)-N-(4-hydroxyphenyl)-N-(5-methoxypyrazin-2-yl)-1,2-dimethyl-1H-pyrrole-3-carboxamide hydrochloride] | 181
2.8 | Cc1c(C(=O)N(c2ccc(O)cc2)c2cnn(C3CCOC3)c2)cc(-c2cc(Cl)ccc2C(=O)N2Cc3ccccc3C[C@H]2CCCN2CCOCC2)n1C (stereo partly drawn) [Example 460, 5-(5-Chloro-2-{[(3R)-3-[3-(morpholin-4-yl)propyl]-3,4-dihydroisoquinolin-2(1H)-yl]carbonyl}phenyl)-N-(4-hydroxyphenyl)-1,2-dimethyl-N-[1-(tetrahydrofuran-3-yl)-1H-pyrazol-4-yl]-1H-pyrrole-3-carboxamide hydrochloride] | 22.9
2.6 | Cc1c(C(=O)N(c2ccc(O)cc2)c2cc(C#N)n(C)c2)cc(-c2ccccc2C(=O)N2Cc3ccccc3C[C@H]2CN2CCOCC2)n1C [Example 433, N-(5-Cyano-1-methyl-1H-pyrrol-3-yl)-N-(4-hydroxyphenyl)-1,2-dimethyl-5-(2-{[(3S)-3-(morpholin-4-ylmethyl)-3,4-dihydroisoquinolin-2(1H)-yl]carbonyl}phenyl)-1H-pyrrole-3-carboxamide hydrochloride] | 48.2
10.1 | COc1ccc(-c2cc(C(=O)N(c3ccc(O)cc3)c3cnn(C)c3)c(C)n2C)c(C(=O)N2Cc3ccccc3C[C@H]2CN2CCOCC2)c1 [Example 418, N-(4-Hydroxyphenyl)-5-(4-methoxy-2-{[(3S)-3-(morpholin-4-ylmethyl)-3,4-dihydroisoquinolin-2(1H)-yl]carbonyl}phenyl)-1,2-dimethyl-N-(1-methyl-1H-pyrazol-4-yl)-1H-pyrrole-3-carboxamide hydrochloride] | 159
3.1 | COc1cc(-c2cc(C(=O)N(c3ccc(O)cc3)c3cc(C#N)n(C)c3C)c(C)n2C)c(C(=O)N2Cc3ccccc3C[C@H]2CN2CCOCC2)cc1F [Example 429, N-(5-Cyano-1,2-dimethyl-1H-pyrrol-3-yl)-5-(4-fluoro-5-methoxy-2-{[(3S)-3-(morpholin-4-ylmethyl)-3,4-dihydroisoquinolin-2(1H)-yl]carbonyl}phenyl)-N-(4-hydroxyphenyl)-1,2-dimethyl-1H-pyrrole-3-carboxamide hydrochloride] | 109
2.6 | COc1cc(C(=O)N2Cc3ccccc3C[C@H]2CN2CCOCC2)c(-c2cc(C(=O)N(c3ccc(O)cc3)c3cc(C#N)n(C)c3C)c(C)n2C)cc1F [Example 440, N-(5-Cyano-1,2-dimethyl-1H-pyrrol-3-yl)-5-(5-fluoro-4-methoxy-2-{[(3S)-3-(morpholin-4-ylmethyl)-3,4-dihydroisoquinolin-2(1H)-yl]carbonyl}phenyl)-N-(4-hydroxyphenyl)-1,2-dimethyl-1H-pyrrole-3-carboxamide hydrochloride] | 13.6
